Data set [1] can be described thus: Chemical stability assessment (RP-HPLC normalized purity). It is filed as physicochemical. The conditions noted are these: for Normalized purity pH 4.0 after 14 days: 1 mg/ml in 50 mM acetate buffer pH 4.0, 40° C.; for Normalized purity pH 7.5 after 14 days: 1 mg/ml in 50 mM phosphate buffer pH 7.5, 40° C. The procedure: Samples were placed in glass vials and incubated at 40° C. The samples were analysed by reverse-phase HPLC on a C18 column with gradient elution using an acetonitrile/trifluoroacetic acid/water eluent system. The area-percentage (area-%) of the main peak after incubation time T=t (relative to time T=0) was detected by UV spectrometry at 220 nm. The purity was first determined as follows: Purity(area-%)=(area of main peak/total area of all peaks)×100. […] Normalized purity values in Table 2 were determined after 14 days of incubation.

Data set [2] has as its target T1, human Glucagon-R (Homo sapiens, UniProt P47871).
T1 construct: expressed in transfected cells
The data set can be described thus: Glucagon receptor assay (cAMP induction, AlphaScreen). The format is cell-based. The conditions noted are these: HEK293 cells expressing the human Glucagon-R, 15 min at 37° C., read-out: GCG-R EC50 in vitro. The method, then:
The 5′-end primers additionally encoded a near-Kozak consensus sequence to ensure efficient translation. […] 48 hr after transfection, cells were seeded for limited dilution cloning and selected with 1 mg/ml G418 in the culture medium.
On the day of analysis, growth medium was removed and the cells were washed once with […] of the included Assay buffer with IBMX. Cells were incubated in […] Assay buffer/IBMX containing increasing concentrations of test peptides for 15 min at 37° C. Then the peptides/Assay buffer was removed and cells were lysed by addition of […] Lysis buffer pr. well and incubation for at least 10 min at room temperature. From each well […] cell lysate was transferred to a 384-well OptiPlate and mixed with Donor and Acceptor beads and incubated for 1 h at room temperature. The cAMP content was measured on an Envision plate reader.

Data set [3] can be described thus: physchem. The conditions noted are these: pH 7.5. The method, then:
A stock solution of the test peptide (2 mg/ml; determined by measurement of the absorption of the solution at 280 nm, and using the theoretical extension coefficient based on the content of tryptophan and tyrosine in the peptide) in demineralized water adjusted to pH 2.5 with HCl was prepared, and aliquots were diluted 1:1 in 100 mM acetate buffer (pH 4.0) and 100 mM phosphate buffer (pH 7.5), respectively, and loaded in a standard flat-bottom, non-sterile 96-well UV Microplate. The absorbance of samples (single samples, n=1) at 280 and 325 nm was measured in an absorbance-based plate reader, which was preheated to ambient temperature.

Square brackets hold non-standard residues; d marks the D form. Peptide text beside a SMILES is read from it. Dab = NCC[C@H](N)C(=O)O; Aib = CC(C)(N)C(=O)O

T1 sequence (P47871 26-477): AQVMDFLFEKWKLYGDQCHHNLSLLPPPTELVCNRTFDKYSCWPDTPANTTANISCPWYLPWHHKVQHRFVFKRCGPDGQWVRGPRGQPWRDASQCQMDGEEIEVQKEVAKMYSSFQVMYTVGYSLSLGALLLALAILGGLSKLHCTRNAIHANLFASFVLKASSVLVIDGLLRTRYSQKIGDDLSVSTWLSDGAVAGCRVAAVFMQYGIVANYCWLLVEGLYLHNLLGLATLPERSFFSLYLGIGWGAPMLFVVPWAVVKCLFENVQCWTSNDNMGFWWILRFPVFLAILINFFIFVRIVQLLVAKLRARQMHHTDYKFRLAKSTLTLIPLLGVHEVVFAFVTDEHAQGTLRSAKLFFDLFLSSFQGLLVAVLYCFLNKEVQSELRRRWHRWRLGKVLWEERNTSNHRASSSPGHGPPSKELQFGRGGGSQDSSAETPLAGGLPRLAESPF

In the case of `CC(C)C[C@H](NC(=O)[C@H](Cc1c[nH]c2ccccc12)NC(=O)[C@H](CCCCN)NC(=O)[C@@H](NC(=O)[C@H](Cc1ccccc1)NC(=O)[C@H](CO)NC(=O)[C@H](CCC(=O)O)NC(=O)[C@H](C)NC(=O)[C@H](CCCNC(=N)N)NC(=O)[C@H](C)NC(=O)C(C)(C)NC(=O)[C@H](CC(=O)O)NC(=O)[C@H](CC(C)C)NC(=O)[C@H](Cc1ccc(O)cc1)NC(=O)[C@H](CCCCN)NC(=O)[C@H](CO)NC(=O)[C@H](Cc1ccc(O)cc1)NC(=O)[C@H](CC(=O)O)NC(=O)[C@H](CO)NC(=O)[C@@H](NC(=O)[C@H](Cc1ccccc1)NC(=O)[C@@H](NC(=O)CNC(=O)[C@H](CCC(N)=O)NC(=O)[C@H](CO)NC(=O)[C@@H](N)Cc1c[nH]cn1)[C@@H](C)O)[C@@H](C)O)C(C)C)C(=O)N[C@@H](CCC(=O)O)C(=O)N[C@@H](CO)C(=O)N[C@H](C(N)=O)[C@@H](C)O` [Compound 31] (H-HSQGTFTSDYSKYLD[Aib]ARAESFVKWLEST-NH2), in data set [1], the “Normalized purity pH 4.0 after 14 days” value is listed as 93.1% and the “Normalized purity pH 7.5 after 14 days” value is reported as 91.7%. Besides, the EC50 (commonly the concentration needed to bring the measured effect to its halfway point) in data set [2] is 0.0072 nM. Moreover, the solubility (usually the dissolved amount per volume that the medium holds) in data set [3] was at least 1000 µg/mL.
Take “H-HSQGTFTSDYSKYLDEARAEDFVKWLEST-OH [Compound 14]”: in data set [1], the “Normalized purity pH 4.0 after 14 days” value turned out to be 89.5% and the “Normalized purity pH 7.5 after 14 days” value is 92.4%. The EC50 in data set [2] was 0.15 nM. In addition, in data set [3], the solubility is at least 1000 µg/mL.
Take `CC(C)C[C@H](NC(=O)[C@H](Cc1c[nH]c2ccccc12)NC(=O)[C@H](CCCCN)NC(=O)[C@@H](NC(=O)[C@H](Cc1ccccc1)NC(=O)[C@H](CO)NC(=O)[C@H](CCC(=O)O)NC(=O)[C@H](C)NC(=O)[C@H](CCCNC(=N)N)NC(=O)[C@H](CCCNC(=N)N)NC(=O)C(C)(C)NC(=O)[C@H](CC(=O)O)NC(=O)[C@H](CC(C)C)NC(=O)[C@H](Cc1ccc(O)cc1)NC(=O)[C@H](CCCCN)NC(=O)[C@H](CO)NC(=O)[C@H](Cc1ccc(O)cc1)NC(=O)[C@H](CC(=O)O)NC(=O)[C@H](CO)NC(=O)[C@@H](NC(=O)[C@H](Cc1ccccc1)NC(=O)[C@@H](NC(=O)CNC(=O)[C@H](CCC(N)=O)NC(=O)[C@H](CO)NC(=O)[C@@H](N)Cc1c[nH]cn1)[C@@H](C)O)[C@@H](C)O)C(C)C)C(=O)N[C@@H](CCC(=O)O)C(=O)N[C@@H](CO)C(=O)N[C@H](C(=O)O)[C@@H](C)O` [Compound 25] (H-HSQGTFTSDYSKYLD[Aib]RRAESFVKWLEST-OH): in data set [1], the “Normalized purity pH 4.0 after 14 days” value was 93.8% and the “Normalized purity pH 7.5 after 14 days” value worked out at 89.8%. Also, the 50% effective concentration (EC50) in data set [2] is 0.0066 nM. In addition, the solubility in data set [3] was at least 1000 µg/mL.
As for `CNC(=O)CC[C@H](NC(=O)[C@H](CO)NC(=O)[C@@H](N)Cc1c[nH]cn1)C(=O)NCC(=O)N[C@H](C(=O)N[C@@H](Cc1ccccc1)C(=O)N[C@H](C(=O)N[C@@H](CO)C(=O)N[C@@H](CC(=O)O)C(=O)N[C@@H](Cc1ccc(O)cc1)C(=O)N[C@@H](CO)C(=O)N[C@@H](CCCCN)C(=O)N[C@@H](Cc1ccc(O)cc1)C(=O)N[C@@H](CC(C)C)C(=O)N[C@@H](CC(=O)O)C(=O)NC(C)(C)C(=O)N[C@@H](C)C(=O)N[C@@H](CCCNC(=N)N)C(=O)N[C@@H](C)C(=O)N[C@@H](CCC(=O)O)C(=O)N[C@@H](CO)C(=O)N[C@@H](Cc1ccccc1)C(=O)N[C@H](C(=O)N[C@@H](CCCCN)C(=O)N[C@@H](Cc1c[nH]c2ccccc12)C(=O)N[C@@H](CC(C)C)C(=O)N[C@@H](CCC(=O)O)C(=O)N[C@@H](CO)C(=O)N[C@H](C(=O)O)[C@@H](C)O)C(C)C)[C@@H](C)O)[C@@H](C)O` [Compound 26] (H-HSE(NHMe)GTFTSDYSKYLD[Aib]ARAESFVKWLEST-OH), in data set [1], the “Normalized purity pH 4.0 after 14 days” value stood at 90% and the “Normalized purity pH 7.5 after 14 days” value turned out to be 93.9%. Also, the EC50 in data set [2] came to 0.0069 nM. For the same molecule, in data set [3], the solubility is at least 1000 µg/mL.
As to “H-HSQGTFTSDYSKYLDLARAEDFVKWLEST-OH [Compound 17]”, in data set [1], the “Normalized purity pH 4.0 after 14 days” value turned out to be 89.9% and the “Normalized purity pH 7.5 after 14 days” value turned out to be 88.3%. Further, the EC50 in data set [2] was found to be 0.029 nM. In addition, the solubility in data set [3] is at least 1000 µg/mL.
Taken in the same sequence, the figures for `CC(=O)NCC[C@H](NC(=O)[C@H](CO)NC(=O)[C@@H](N)Cc1c[nH]cn1)C(=O)NCC(=O)N[C@H](C(=O)N[C@@H](Cc1ccccc1)C(=O)N[C@H](C(=O)N[C@@H](CO)C(=O)N[C@@H](CC(=O)O)C(=O)N[C@@H](Cc1ccc(O)cc1)C(=O)N[C@@H](CO)C(=O)N[C@@H](CCCCN)C(=O)N[C@@H](Cc1ccc(O)cc1)C(=O)N[C@@H](CC(C)C)C(=O)N[C@@H](CC(=O)O)C(=O)NC(C)(C)C(=O)N[C@@H](C)C(=O)N[C@@H](CCCNC(=N)N)C(=O)N[C@@H](C)C(=O)N[C@@H](CCC(=O)O)C(=O)N[C@@H](CO)C(=O)N[C@@H](Cc1ccccc1)C(=O)N[C@H](C(=O)N[C@@H](CCCCN)C(=O)N[C@@H](Cc1c[nH]c2ccccc12)C(=O)N[C@@H](CC(C)C)C(=O)N[C@@H](CCC(=O)O)C(=O)N[C@@H](CO)C(=O)N[C@H](C(N)=O)[C@@H](C)O)C(C)C)[C@@H](C)O)[C@@H](C)O` [Compound 24] (H-HS[Dab](Ac)GTFTSDYSKYLD[Aib]ARAESFVKWLEST-NH2) were 92.8%, 94.4%, 0.0078 nM and at least 1000 µg/mL.
Take `CC(C)C[C@H](NC(=O)[C@H](Cc1c[nH]c2ccccc12)NC(=O)[C@H](CCCCN)NC(=O)[C@@H](NC(=O)[C@H](Cc1ccccc1)NC(=O)[C@H](CC(=O)O)NC(=O)[C@H](CCC(=O)O)NC(=O)[C@H](C)NC(=O)[C@H](CCCNC(=N)N)NC(=O)[C@H](C)NC(=O)C(C)(C)NC(=O)[C@H](CC(=O)O)NC(=O)[C@H](CC(C)C)NC(=O)[C@H](Cc1ccc(O)cc1)NC(=O)[C@H](CCCCN)NC(=O)[C@H](CO)NC(=O)[C@H](Cc1ccc(O)cc1)NC(=O)[C@H](CC(=O)O)NC(=O)[C@H](CO)NC(=O)[C@@H](NC(=O)[C@H](Cc1ccccc1)NC(=O)[C@@H](NC(=O)CNC(=O)[C@H](CCC(N)=O)NC(=O)[C@H](CO)NC(=O)[C@@H](N)Cc1c[nH]cn1)[C@@H](C)O)[C@@H](C)O)C(C)C)C(=O)N[C@@H](CCC(=O)O)C(=O)N[C@@H](CO)C(=O)N[C@H](C(=O)O)[C@@H](C)O` [Compound 12] (H-HSQGTFTSDYSKYLD[Aib]ARAEDFVKWLEST-OH): in data set [1], the “Normalized purity pH 4.0 after 14 days” value was 86.8% and the “Normalized purity pH 7.5 after 14 days” value is recorded as 90.8%. The EC50 in data set [2] came out at 0.03 nM. In data set [3], the solubility was at least 1000 µg/mL.
Take “H-HSQGTFTSDYSKYLDSARAEDFVKWLES-OH [Compound 13]”: in data set [1], the “Normalized purity pH 4.0 after 14 days” value turned out to be 84.6% and the “Normalized purity pH 7.5 after 14 days” value is listed as 88.8%. Besides, the EC50 in data set [2] was 0.07 nM. Also, the solubility in data set [3] was at least 1000 µg/mL.
For the molecule “H-HSQGTFTSDYSKYLESARAESFVKWLEST-OH [Compound 16]”, the “Normalized purity pH 4.0 after 14 days” value in data set [1] is 89.1%. The EC50 in data set [2] is 0.39 nM. The solubility in data set [3] is at least 1000 µg/mL.
As to “H-HSQGTFTSDYSKYLDSARAEDFVAWLEST-OH [Compound 4]”, in data set [1], the “Normalized purity pH 4.0 after 14 days” value amounted to 80.5% and the “Normalized purity pH 7.5 after 14 days” value is on record as 84.6%. Further, the EC50 in data set [2] was 0.34 nM. The molecule further displayed a solubility in data set [3] of at least 1000 µg/mL.
